# Source: patent US20220296722A1, “CONJUGATES AND CONJUGATES FOR USE IN PREVENTING OR TREATING OF BRAIN DAMAGE AND NEURODEGENERATIVE DISEASES” (MEDICORTEX FINLAND OY, priority 2019, published 2022)
# Legend:
# [1] = Gross macroscopic examination and weighing of major organs at 24 h after dosing; assay type: in vivo, Male CD-1 (ICR) mice
# Description: (§1) MCF-013 was formulated as a clear solution by dissolving in 10% final volume ethanol and then making up to full volume with saline at concentrations of 0.1, 0.3, 1 and 4 mg provided material/mL. This provided doses of 1, 3, 10 and 40 mg provided material/kg when administered intraperitoneally in 10 ml/kg dosing volumes.
# (§2) Male CD-1 (ICR) mice were acclimatised to the procedure room. Groups of 3 mice were administered with vehicle (ethanol:saline) [10:90], or MCF-013 at 1, 3, 10 or 40 mg/kg intraperitoneally in 10 mL/kg dosing volumes. Doses were administered in an escalating dose order. […] These tissues were then excised and weighed and any with overt macroscopic abnormalities were to be placed in 10 volumes neutral buffered formalin solution (Sigma Cat no: HT501128).
# [2] = Modified Irwin procedure: overt behavioural and physiological parameters after a single intraperitoneal dose; assay type: in vivo, Male CD-1 (ICR) mice; conditions: for behavioural or physiological changes (modified Irwin): single dose, 3 mice, assessed 0.25-24 h
# Description: as §1, §2
structure (smiles),measurement,setting,value
"O=C(Nc1ccccc1OCCOc1ccc(O)c(O)c1OC[C@H]1O[C@@H](O)[C@H](O)[C@@H](O)[C@@H]1O)c1cccc(O)c1O [MCF-013, N-{o-[2-(2-{[(2R,3S,4S,5R,6R)-3,4,5,6-Tetrahydroxytetrahydro-2Hpyran-2-yl]methoxy}-3,4-dihydroxyphenoxy)ethoxy]phenyl}2,3-dihydroxybenzamide]",gross macroscopic examination of the major organs,[1]; 1 mg/kg intraperitoneally,caecum of mouse 6 was noted to be slightly distended with air
same,organ weights,[1]; 1 mg/kg intraperitoneally,normal
same,gross macroscopic examination of the major organs,[1]; 3 mg/kg intraperitoneally,no abnormalities
same,organ weights,[1]; 3 mg/kg intraperitoneally,normal
same,gross macroscopic examination of the major organs,[1]; 10 mg/kg intraperitoneally,no abnormalities
same,organ weights,[1]; 10 mg/kg intraperitoneally,normal
same,gross macroscopic examination of the major organs,[1]; 40 mg/kg intraperitoneally,no abnormalities
same,organ weights,[1]; 40 mg/kg intraperitoneally,normal
same,behavioural or physiological changes (modified Irwin),[2]; 1 mg/kg intraperitoneally,"One of three mice (No. 6) showed slight hunched posture at 0.5 and 1h, and slight piloerection 0.5 h after dosing"
same,behavioural or physiological changes (modified Irwin),[2]; 3 mg/kg intraperitoneally,One of three animals (mouse 9) showed slight hunched posture at 0.25 h after dosing
same,behavioural or physiological changes (modified Irwin),[2]; 10 mg/kg intraperitoneally,no behavioural or physiological changes were noted
same,behavioural or physiological changes (modified Irwin),[2]; 40 mg/kg intraperitoneally,no behavioural or physiological changes were noted
same,tolerability over a 24 h period,"[2]; 1, 3, 10 and 40 mg provided material/kg intraperitoneally, mice, compared with ethanol:saline [10:90] vehicle",well tolerated
